By IC50 is commonly meant the concentration that gives 50% inhibition.

This is an account of results in patent publication US10112940B2, “Histone demethylase inhibitors” (Celgene Quanticel Research, Inc., priority 2014, dated 2018).

One test has as its target JMJD2C (Homo sapiens (Human), UniProt Q9H3R0). As to the kind of experiment: JMJD2C in vitro enzyme inhibition assay (TR-FRET). In kind it is biochemical. The conditions noted are these: 0.3 nM JMJD2C, 300 nM H3K9me3-biotin peptide, 2 μM alpha-ketoglutaric acid, 30 minutes. In a few lines:
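Baculovirus-expressed JMJD2C (aa 2-372), 0.3 nM, with 300 nM biotin-H3K9me3 peptide and 2 μM alpha-ketoglutarate in HEPES pH 7.3 with ascorbate and Fe(II), 30 min at room temperature, 11-point inhibitor series. H3K9me2 product detected by TR-FRET (Eu-antibody/streptavidin-APC, 665/615 ratio); IC50 fitted.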
In general terms: Time-resolved FRET reads energy transfer from a long-lived donor to a nearby acceptor.

Test [1] has as its system KYSE-150 esophageal carcinoma cell line. As to the kind of experiment: In vitro cell-based assay: BrdU incorporation cell proliferation ELISA. Further details: species or system human. The conditions noted are these: Homo sapiens, KYSE-150 cells, 168 hours compound incubation, read-out: Cellular IC50. The method in brief:
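KYSE-150 cells (SMAD4 mut, TP53 mut) seeded at 2,000 cells/well, treated next day with 11-point dilutions (100 μM to 2 nM final) for 168 h. Proliferation read by 2 h BrdU labelling and colorimetric anti-BrdU ELISA at 450 nm; IC50 from curve fit.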
For orientation: Dividing cells build labelled thymidine or BrdU into new DNA.

Sequence of JMJD2C (Q9H3R0 2-372): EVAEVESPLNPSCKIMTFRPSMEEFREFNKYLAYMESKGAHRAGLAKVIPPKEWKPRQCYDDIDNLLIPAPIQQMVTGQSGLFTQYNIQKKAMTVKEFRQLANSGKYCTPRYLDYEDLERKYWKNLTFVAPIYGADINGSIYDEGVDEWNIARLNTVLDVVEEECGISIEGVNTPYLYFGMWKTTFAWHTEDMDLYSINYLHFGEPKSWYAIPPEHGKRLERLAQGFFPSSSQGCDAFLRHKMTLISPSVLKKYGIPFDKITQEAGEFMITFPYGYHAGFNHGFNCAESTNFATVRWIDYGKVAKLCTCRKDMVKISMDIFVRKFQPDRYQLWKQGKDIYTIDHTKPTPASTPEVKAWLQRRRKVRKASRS

On to `COCCNCC(C)c1ccc(N(C)c2ccc(Oc3nc(O)c4ccncc4n3)cc2)cc1` (stereo not drawn) [Example 100, 2-[4-[4-[1-(2-methoxyethylamino)propan-2-yl]-N-methylanilino]phenoxy]pyrido[3,4-d]pyrimidin-4-ol], for which the IC50 on JMJD2C is no more than 100 nM; in test [1], greater than 10000 nM.
`CCN(c1ccc(Oc2nc(O)c3ccncc3n2)cc1)c1ccc(C(C)C)cc1` [Example 117, 2-(4-(ethyl(4-isopropylphenyl)amino)phenoxy)pyrido[3,4-d]pyrimidin-4-ol]: the values for the IC50 (on JMJD2C; in test [1]) were 1000 to 10000 nM and no more than 100 nM, respectively.
For `Oc1nc(Oc2ccc3c(ccn3CCc3ccccc3)c2)nc2cnccc12` [Example 3, 2-(1-Phenethyl-1H-indol-5-yloxy)-pyrido[3,4-d]pyrimidin-4-ol] the same measures were 100 to 1000 nM and 100 to 1000 nM.
For `CN(c1ccc(Oc2nc(O)c3ccncc3n2)cc1)c1cccc(C#N)c1` [Example 40, 3-{[4-(4-hydroxy-pyrido[3,4-d]pyrimidin-2-yloxy)-phenyl]-methyl-amino}-benzonitrile], the IC50 at JMJD2C is 100 to 1000 nM; in test [1], greater than 10000 nM.
For `Oc1nc(Oc2ccc3c(c2)CCN3c2ccccc2)nc2cnccc12` [Example 32, 2-(1-phenyl-2,3-dihydro-1H-indol-5-yloxy)-pyrido[3,4-d]pyrimidin-4-ol] the same measures were 100 to 1000 nM and 1000 to 10000 nM.
Taken in the same sequence, the figures for `CN(c1ccc(Oc2nc(O)c3ccncc3n2)cc1)c1ccc(C2=CCOCC2)cc1` [Example 98, 2-[4-[4-(3,6-dihydro-2H-pyran-4-yl)-N-methylanilino]phenoxy]pyrido[3,4-d]pyrimidin-4-ol] were 1000 to 10000 nM and greater than 10000 nM.
Taken in the same sequence, the figures for `CCc1ccc(N(C)c2ccc(Oc3nc(O)c4ccncc4n3)cc2)cc1N1CCN(C)CC1` [Example 60, 2-[4-[4-ethyl-N-methyl-3-(4-methylpiperazin-1-yl)anilino]phenoxy]pyrido[3,4-d]pyrimidin-4-ol] were no more than 100 nM and greater than 10000 nM.
With `COCC(C)(C)c1ccc(N(C)c2ccc(Oc3nc(O)c4ccncc4n3)cc2)cc1` [Example 67, 2-[4-[4-(1-methoxy-2-methylpropan-2-yl)-N-methylanilino]phenoxy]pyrido[3,4-d]pyrimidin-4-ol], the IC50 against JMJD2C is 1000 to 10000 nM; in test [1] it was no more than 100 nM.
For `CN(c1ccc(Oc2nc(O)c3ccncc3n2)cc1)c1cncc(N2CCOCC2)c1` [Example 27, 2-{4-[methyl-(5-morpholin-4-yl-pyridin-3-yl)-amino]-phenoxy}-pyrido[3,4-d]pyrimidin-4-ol] the same measures were 100 to 1000 nM and greater than 10000 nM.
For `CN(c1ccc(C#N)cc1)c1ccc(Oc2nc(O)c3ccncc3n2)cc1` [Example 81, 4-[4-(4-hydroxypyrido[3,4-d]pyrimidin-2-yl)oxy-N-methylanilino]benzonitrile] the same measures were 100 to 1000 nM and greater than 10000 nM.
Take `CC(c1ccc(N(C)c2ccc(Oc3nc(O)c4ccncc4n3)cc2)cc1)C1CC1` (stereo not drawn) [Example 39, 2-(4-{[4-(1-cyclopropyl-ethyl)-phenyl]-methyl-amino}-phenoxy)-pyrido[3,4-d]pyrimidin-4-ol]: the values for the IC50 (against JMJD2C; in test [1]) were 1000 to 10000 nM and no more than 100 nM, respectively.
For `CC(CCN)c1ccc(N(C)c2ccc(Oc3nc(O)c4ccncc4n3)cc2)cc1` (stereo not drawn) [Example 71, 2-[4-[4-(4-aminobutan-2-yl)-N-methylanilino]phenoxy]pyrido[3,4-d]pyrimidin-4-ol] the same measures were no more than 100 nM and 1000 to 10000 nM.
Consider `CN(c1ccccc1)c1ccc(Oc2nc(O)c3ccncc3n2)cc1` [Example 5, 2-[4-(Methyl-phenyl-amino)-phenoxy]-pyrido[3,4-d]pyrimidin-4-ol], for which the IC50 (against JMJD2C; in test [1]) was 100 to 1000 nM each time.
Consider `Oc1nc(Oc2ccc3c(ccn3C3CCNCC3)c2)nc2cnccc12` [Example 104, 2-(1-piperidin-4-ylindol-5-yl)oxypyrido[3,4-d]pyrimidin-4-ol], for which the results for the IC50 (at JMJD2C; in test [1]) were no more than 100 nM and greater than 10000 nM, respectively.
As to `CN(c1ccc(Oc2nc(O)c3ccncc3n2)cc1)c1cccc(N2CCCC2)c1` [Example 48, 2-[4-(N-methyl-3-pyrrolidin-1-ylanilino)phenoxy]pyrido[3,4-d]pyrimidin-4-ol], the IC50 was 100 to 1000 nM against JMJD2C and greater than 10000 nM in test [1].
Taken in the same sequence, the figures for `Oc1nc(Oc2ccc3cn(Cc4ccccc4)nc3c2)nc2cnccc12` [Example 12, 2-(2-Benzyl-2H-indazol-6-yloxy)-pyrido[3,4-d]pyrimidin-4-ol] were 100 to 1000 nM and 1000 to 10000 nM.
Take `CN(c1ccc(CC2CC2)cc1)c1ccc(Oc2nc(O)c3ccncc3n2)cc1` [Example 76, 2-[4-[4-(cyclopropylmethyl)-N-methylanilino]phenoxy]pyrido[3,4-d]pyrimidin-4-ol]: the IC50 on JMJD2C was 1000 to 10000 nM; in test [1], no more than 100 nM.
As to `CC(C)c1ccc(N(C)c2ccc(Oc3nc(O)c4ccncc4n3)cc2)cc1` [Example 85, 2-[4-(N-methyl-4-propan-2-ylanilino)phenoxy]pyrido[3,4-d]pyrimidin-4-ol], the IC50 on JMJD2C is 1000 to 10000 nM; in test [1] it was no more than 100 nM.
Taken in the same sequence, the figures for `CC(CN)c1ccc(N(C)c2ccc(Oc3nc(O)c4ccncc4n3)cc2)cc1` (stereo not drawn) [Example 37, 2-(4-{[4-(2-amino-1-methyl-ethyl)-phenyl]-methyl-amino}-phenoxy)-pyrido[3,4-d]pyrimidin-4-ol] were no more than 100 nM and greater than 10000 nM.
On to `Cc1ccc(N(C)c2ccc(Oc3nc(O)c4ccncc4n3)cc2)cc1F` [Example 53, 2-[4-(3-fluoro-N,4-dimethylanilino)phenoxy]pyrido[3,4-d]pyrimidin-4-ol], for which the IC50 (against JMJD2C; in test [1]) was 100 to 1000 nM throughout.
Regarding `CN(c1ccc(Oc2nc(O)c3ccncc3n2)cc1)c1ccc(C2CC2)cc1` [Example 42, 2-{4-[(4-cyclopropyl-phenyl)-methyl-amino]-phenoxy}-pyrido[3,4-d]pyrimidin-4-ol], the IC50 (against JMJD2C; in test [1]) was 100 to 1000 nM throughout.
In the case of `C[C@@H](c1ccccc1)N(C)c1ccc(Oc2nc(O)c3ccncc3n2)cc1` [Example 51, 2-[4-[methyl-[(1S)-1-phenylethyl]amino]phenoxy]pyrido[3,4-d]pyrimidin-4-ol], the values for the IC50 (against JMJD2C; in test [1]) were 100 to 1000 nM and 1000 to 10000 nM, respectively.
For `CN(C)c1cccc(N(C)c2ccc(Oc3nc(O)c4ccncc4n3)cc2)c1` [Example 47, 2-[4-[3-(dimethylamino)-N-methylanilino]phenoxy]pyrido[3,4-d]pyrimidin-4-ol] the same measures were 100 to 1000 nM and 100 to 1000 nM.
Taken in the same sequence, the figures for `CN(Cc1ccccc1)c1ccc(Oc2nc(O)c3ccncc3n2)cc1` [Example 6, 2-[4-(Benzyl-methyl-amino)-phenoxy]-pyrido[3,4-d]pyrimidin-4-ol] were 100 to 1000 nM and no more than 100 nM.
For `CC(C)Oc1ccc(N(C)c2ccc(Oc3nc(O)c4ccncc4n3)cc2)cc1` [Example 111, 2-[4-(N-methyl-4-propan-2-yloxyanilino)phenoxy]pyrido[3,4-d]pyrimidin-4-ol] the same measures were 100 to 1000 nM and 100 to 1000 nM.
On to `CCc1ccc(N(C)c2ccc(Oc3nc(O)c4ccncc4n3)cc2)cc1` [Example 84, 2-[4-(4-ethyl-N-methylanilino)phenoxy]pyrido[3,4-d]pyrimidin-4-ol], for which the results for the IC50 (on JMJD2C; in test [1]) were 100 to 1000 nM and no more than 100 nM, respectively.
Taken in the same sequence, the figures for `CN(C(=O)Cc1ccccc1)c1ccc(Oc2nc(O)c3ccncc3n2)cc1` [Example 24, N-[4-(4-hydroxy-pyrido[3,4-d]pyrimidin-2-yloxy)-phenyl]-N-methyl-2-phenyl-acetamide] were 100 to 1000 nM and greater than 10000 nM.
With `Cn1ccc2cc(Oc3nc(O)c4ccncc4n3)ccc21` [Example 2, 2-(1-Methyl-1H-indol-5-yloxy)-pyrido[3,4-d]pyrimidin-4-ol], the IC50 against JMJD2C is 100 to 1000 nM; in test [1], no more than 100 nM.
Taken in the same sequence, the figures for `CCc1ccc(N(C)c2ccc(Oc3nc(O)c4ccncc4n3)cc2)cc1OCCOC` [Example 66, 2-[4-[4-ethyl-3-(2-methoxyethoxy)-N-methylanilino]phenoxy]pyrido[3,4-d]pyrimidin-4-ol] were 1000 to 10000 nM and 1000 to 10000 nM.
For `CC(CC#N)c1ccc(N(C)c2ccc(Oc3nc(O)c4ccncc4n3)cc2)cc1` (stereo not drawn) [Example 30, 3-(4-{[4-(4-hydroxy-pyrido[3,4-d]pyrimidin-2-yloxy)-phenyl]-methyl-amino}-phenyl)-butyronitrile] the same measures were 100 to 1000 nM and no more than 100 nM.
Taken in the same sequence, the figures for `CCN(c1ccccc1)c1ccc(Oc2nc(O)c3ccncc3n2)cc1` [Example 80, 2-[4-(N-ethylanilino)phenoxy]pyrido[3,4-d]pyrimidin-4-ol] were 100 to 1000 nM and 100 to 1000 nM.
In the case of `COCCN(c1ccc(Oc2nc(O)c3ccncc3n2)cc1)c1ccc(C(C)C)cc1` [Example 102, 2-[4-[N-(2-methoxyethyl)-4-propan-2-ylanilino]phenoxy]pyrido[3,4-d]pyrimidin-4-ol], the IC50 (at JMJD2C; in test [1]) was 100 to 1000 nM throughout.
For the compound `C[C@H](c1ccccc1)N(C)c1ccc(Oc2nc(O)c3ccncc3n2)cc1` [Example 52, 2-[4-[methyl-[(1R)-1-phenylethyl]amino]phenoxy]pyrido[3,4-d]pyrimidin-4-ol], the figures for the IC50 (on JMJD2C; in test [1]) were 100 to 1000 nM and 1000 to 10000 nM, respectively.
